Results taken from article PMC8835733, “PaOctβ2R: Identification and Functional Characterization of an Octopamine Receptor Activating Adenylyl Cyclase Activity in the American Cockroach Periplaneta americana” (International Journal of Molecular Sciences, 2022).
“And” between values parts separate entries of the source, which are not always exact repeats. Identical values can stand only once. Like-named read-outs stand apart in the source and are kept apart here.

What was measured:
[1] = system: PaOctβ2R-HA; assay: Agonist-evoked cAMP production in PaOctβ2R-HA-expressing flpTM cells (CNG channel / Fluo-4 Ca2+ imaging); assay type: cell-based, Periplaneta americana; conditions: for increase in [cAMP]i in PaOctβ2R-HA-expressing cells: biogenic amines at 0.1 and 1 µM; for increase in [cAMP]i in PaOctβ2R-HA-expressing cells / concentration at which the concentration-response curve saturated: 100 µM IBMX; for concentration at which the concentration-response curve saturated: flpTM + PaOctβ2R-HA cells
From the text: (§1) These insect receptors are preferentially activated by octopamine and to a certain extent by tyramine as well. In a first series of experiments, we thus examined the ability of different biogenic amines, i.e., octopamine, tyramine, dopamine, histamine, and serotonin, to evoke PaOctβ2R-HA-dependent cAMP production in receptor-expressing as well as in the parental (flpTM) cell line. Increasing [cAMP]i cause opening of the CNG channels and influx of extracellular Ca^2+ which was detected by the Ca^2+-sensitive dye FLUO-4.
(§2) In a next step, concentration series of octopamine and tyramine ranging from 10^−12 M to 10^−7 M for octopamine and 10^−11 M to 10^−6 M for tyramine were applied to the cell lines. The fluorescence signals were normalized to values obtained in flpTM + PaOctβ2R-HA cells with the highest ligand concentration (=100%) and used to calculate concentration response curves for the receptor (Figure 6; Table 1).
(§3) Cells were transfected with 10 µg of the pcPaOctβ2R-HA construct by a modified calcium phosphate method following a previously established protocol. Transfected cells were selected in the presence of the antibiotics G418 (1 mg/mL) and hygromycin (100 µg/mL).
(§4) A stably transfected cell line was established to examine PaOctβ2R-HA receptor activity by Ca^2+ imaging. Control measurements were performed in the parental (flpTM) cell line. Changes in [cAMP]i were registered indirectly via co-expressed CNG channels that are opened by cAMP and cause an influx of extracellular Ca^2+ [18, 26, 91]. Changes in [Ca^2+]i were monitored with the Ca^2+-sensitive fluorescent dye Fluo-4. Cells were grown in 96-well dishes to a density of approximately 2 × 10^4 cells per well and were loaded at room temperature with Fluo-4 AM as described previously. After 90 min, the loading solution was substituted for dye-free extracellular solution (ECS; 120 mM NaCl, 5 mM KCl, 2 mM MgCl2, 2 mM CaCl2, 10 mM HEPES, and 10 mM glucose, pH 7.4 (NaOH)) containing 100 µM 3-isobutyl-1-methylxanthine (IBMX; Sigma-Aldrich/Merck, Darmstadt, Germany) as an inhibitor of cell-endogenous phosphodiesterases. The plate was transferred into a fluorescence reader (FLUOstar Omega, BMG Labtech, Ortenberg, Germany) to monitor Fluo-4 fluorescence. The excitation wavelength was 485 nm. Fluorescence emission was detected at 520 nm. Concentration series of various biogenic amines and synthetic receptor ligands were added once Fluo-4 fluorescence had reached a stable value in each well. The changes in Fluo-4 fluorescence were recorded automatically. Concentration-response curves were established from at least three independent experiments. Data points were derived from four-fold or eightfold determination.

[2] = system: PaOctβ2R-HA; assay: Antagonist inhibition of octopamine-activated PaOctβ2R-HA (cAMP via CNG channel / Fluo-4); assay type: cell-based, Periplaneta americana; conditions: 1 × 10^−9 M octopamine; for Maximal Inhibition of octopamine-activated PaOctβ2R-HA activity: 1 × 10^−4 M IBMX
Description: (§5) The reduction of cellular cAMP production, monitored as a decrease in Fluo-4 fluorescence (see Section 4.9), was quantified and normalized to the value obtained without adding antagonists (=100%). Normalized data were used to construct inhibitor concentration-response curves.
(§6) Ligand concentrations that led to half-maximal inhibition of PaOctβ2R-HA (IC50) were determined from the concentration-response curves.
as §4

[3] = system: PaOctβ2R-HA; assay: Antagonist inhibition of tyramine-activated PaOctβ2R-HA (cAMP via CNG channel / Fluo-4); assay type: cell-based, Periplaneta americana; conditions: 1 × 10^−7 M tyramine; for Maximal Inhibition of tyramine-activated PaOctβ2R-HA activity: 1 × 10^−4 M IBMX
Description: as §5, §6, §4

[4] = target: (UniProt Z9G3U5DLY1); assay: Antagonist inhibition of octopamine-activated PaOctβ2R-HA (cAMP via CNG channel / Fluo-4); assay type: cell-based, Periplaneta americana; conditions: 1 × 10^−9 M octopamine, 1 × 10^−4 M IBMX
Description: as §5, §6, §4

[5] = target: (UniProt Z9G3U5DLY1); assay: Antagonist inhibition of tyramine-activated PaOctβ2R-HA (cAMP via CNG channel / Fluo-4); assay type: cell-based, Periplaneta americana; conditions: 1 × 10^−7 M tyramine, 1 × 10^−4 M IBMX
Description: as §5, §6, §4

[6] = target: (UniProt Z9G3U5DLY1); assay: Agonist-evoked cAMP production in PaOctβ2R-HA-expressing flpTM cells (CNG channel / Fluo-4 Ca2+ imaging); assay type: cell-based, Periplaneta americana; conditions: 100 µM IBMX
From the text: as §1, §2, §3, §4

[7] = system: flpTM cells; assay: Control measurements in parental (non-transfected) flpTM cells (cAMP via CNG channel / Fluo-4); assay type: cell-based, human; conditions: concentration series of octopamine or tyramine; 100 µM IBMX
From the text: as §1, with “FLUO-4. No stimulation of adenylyl cyclase activity was recorded in flpTM cells when incubated with 0.1 or 1 µM concentrations of biogenic amines (Figure 5A). […]” for “FLUO-4.”
A stably transfected cell line was established to examine PaOctβ2R-HA receptor activity by Ca^2+ imaging. […] Changes in [Ca^2+]i were monitored with the Ca^2+-sensitive fluorescent dye Fluo-4. […] The plate was transferred into a fluorescence reader (FLUOstar Omega, BMG Labtech, Ortenberg, Germany) to monitor Fluo-4 fluorescence. […] Fluorescence emission was detected at 520 nm. Concentration series of various biogenic amines and synthetic receptor ligands were added once Fluo-4 fluorescence had reached a stable value in each well. The changes in Fluo-4 fluorescence were recorded automatically. […]

[8] = read-out: IC50, half-maximal inhibition of octopamine-activated PaOctβ2R-HA
[9] = read-out: pIC50 ± SD, octopamine-activated PaOctβ2R-HA (converted)
[10] = read-out: IC50, half-maximal inhibition of tyramine-activated PaOctβ2R-HA
[11] = read-out: pIC50 ± SD, tyramine-activated PaOctβ2R-HA (converted)
[12] = mean of n = 5 experiments, flpTM + PaOctβ2R-HA cells, read-out: EC50, mean value for half-maximal stimulation of PaOctβ2R-HA
[13] = mean of n = 5 experiments, flpTM + PaOctβ2R-HA cells, read-out: pEC50 ± SD, half-maximal stimulation of PaOctβ2R-HA (converted)
[14] = single representative eight-fold determination, read-out: EC50, half maximal activation of PaOctβ2R-HA (representative experiment, Figure 6)

## NCCc1c[nH]c2ccc(O)cc12 [serotonin, 5-hydroxytryptamine]
[1]
  increase in [cAMP]i in PaOctβ2R-HA-expressing cells: Neither dopamine, histamine nor serotonin caused an increase in [cAMP]i

## CCCN(CCC)C1CCc2cccc(O)c2C1 (centres unmarked) [8-OH-DPAT, 8-hydroxy-2-(dipropylamino)tetralin]
[2]
  effect on octopamine-stimulated PaOctβ2R-HA activity (in words): did not impair
[3]
  effect on tyramine-stimulated PaOctβ2R-HA activity (in words): did not impair

## NC1=NCC2c3ccccc3Cc3ccccc3N12 (centres unmarked) [epinastine]
[4]; [8]
  IC50: ~12 nM and 12 nM
[4]; [9]
  IC50: 11.4 nM
[2]
  Maximal Inhibition of octopamine-activated PaOctβ2R-HA activity: 100%
[5]; [10]
  IC50: ~13 nM and 13 nM
[5]; [11]
  IC50: 11.2 nM
[3]
  Maximal Inhibition of tyramine-activated PaOctβ2R-HA activity: 100%

## COC(=O)[C@@H]1[C@H]2C[C@H]3c4[nH]c5ccccc5c4CCN3C[C@@H]2CC[C@@H]1O [yohimbine]
[2]
  effect on octopamine-stimulated PaOctβ2R-HA activity (in words): did not impair
[3]
  effect on tyramine-stimulated PaOctβ2R-HA activity (in words): did not impair

## NCC(O)c1ccc(O)cc1 (centres unmarked) [octopamine]
[6]; [12]
  EC50: 0.467 nM
[6]; [13]
  EC50: 0.447 nM
[6]; [14]
  EC50: 0.297 nM
[1]
  increase in [cAMP]i in PaOctβ2R-HA-expressing cells: showed increasing [cAMP]i
  concentration at which the concentration-response curve saturated: ≥ 10^−9 M
[1]; octopamine vs tyramine potency
  preference (selectivity) of PaOctβ2R-HA for octopamine over tyramine: 100 fold and ~ 100 fold
[7]
  change in the fluorescence signal in non-transfected flpTM cells: no change in the fluorescence signal was observed

## NCCc1ccc(O)cc1 [tyramine]
[6]; [12]
  EC50: 43 nM
[6]; [13]
  EC50: 40.7 nM
[6]; [14]
  EC50: 36.8 nM
[1]
  increase in [cAMP]i in PaOctβ2R-HA-expressing cells: showed increasing [cAMP]i
  concentration at which the concentration-response curve saturated: ≥ 10^−7 M
[7]
  change in the fluorescence signal in non-transfected flpTM cells: no change in the fluorescence signal was observed

## O=C(c1ccc(F)cc1)C1CCN(CCn2c(=O)[nH]c3ccccc3c2=O)CC1 [ketanserin]
[4]; [8]
  IC50: 5120 nM
[4]; [9]
  IC50: 5120 nM
[2]
  Maximal Inhibition of octopamine-activated PaOctβ2R-HA activity: 80%
[2]; listed as Ketanserin
  Maximal Inhibition of octopamine-activated PaOctβ2R-HA activity: approximately 80%
[5]; [10]
  IC50: 1680 nM
[5]; [11]
  IC50: 1710 nM
[3]
  Maximal Inhibition of tyramine-activated PaOctβ2R-HA activity: 50%

## COc1ccc2[nH]cc(CCN)c2c1 [5-MT, 5-methoxytryptamine]
[2]
  effect on octopamine-stimulated PaOctβ2R-HA activity (in words): did not impair
[3]
  effect on tyramine-stimulated PaOctβ2R-HA activity (in words): did not impair

## Cc1ccc(N(CC2=NCCN2)c2cccc(O)c2)cc1 [phentolamine]
[4]; [8]
  IC50: 257 nM
[4]; [9]
  IC50: 247 nM
[2]
  Maximal Inhibition of octopamine-activated PaOctβ2R-HA activity: 100%
[5]; [10]
  IC50: 256 nM
[5]; [11]
  IC50: 255 nM
[3]
  Maximal Inhibition of tyramine-activated PaOctβ2R-HA activity: 100%

## NCCc1ccc(O)c(O)c1 [dopamine]
[1]
  increase in [cAMP]i in PaOctβ2R-HA-expressing cells: Neither dopamine, histamine nor serotonin caused an increase in [cAMP]i

## NCCc1c[nH]cn1 [histamine]
[1]
  increase in [cAMP]i in PaOctβ2R-HA-expressing cells: Neither dopamine, histamine nor serotonin caused an increase in [cAMP]i
